Test results published in US11130780B2, “Inhibitors of growth factor activation enzymes” (Washington University, priority 2015, dated 2021).
Read-outs that look alike come from different tables or passages of the source. Residues, ends and D or L forms follow the SMILES beside them. *: point of attachment. AMC = Cc1cc(=O)oc2cc(N*)ccc12; Boc = CC(C)(C)OC(=O)*

Columns and labels:
Factor Xa = Factor Xa (Homo sapiens, UniProt P00742); assay: Chromogenic kinetic enzyme assay of Factor Xa; type: biochemical
Procedure: (§1) Inhibitors (11-pt serial dilutions, 0-20 μM final concentration) were serially diluted in DMSO (2% DMSO final concentration) and then mixed with recombinant thrombin (0.15 nM final concentration) or Factor Xa (0.35 nM final concentration) in TNC buffer (25 mM Tris, 150 mM NaCl, 5 mM CaCl2, 0.01% TRITON X-100, pH 8) using clear 384 well plates. […] Changes in absorbance at 405 nm were measured over time in a Biotek Synergy 2 plate (Winnoski, Vt.). Using GraphPad Prism version 6.04 software program, (GraphPad Software, San Diego, Calif., www.graphpad.com), a four parameter curve fit was used to determine the inhibitor IC50s from a plot of the mean reaction velocity versus the inhibitor concentration. Ki values were calculated from the IC50 values using the Cheng and Prusoff equation (Ki=IC50/(1+[S]/Km).

Trypsin = Trypsin selectivity assay; type: biochemical
HGFA [1] = target: T1, HGFA (Homo sapiens, UniProt Q04756); assay: Fluorescent kinetic enzyme inhibitor assay of HGFA; type: biochemical; conditions: for Ki: Fluorogenic Assay, read-out: HGFA Ki
T1 construct: His6 tag (N); seven amino acid spacer and seven amino acid TEV cleavage site (N); Honey Bee melittin signal peptide (N); made in house; host or cells: High 5 insect cells (baculovirus; virus raised in Sf9)
T1 sequence (Q04756 373-655): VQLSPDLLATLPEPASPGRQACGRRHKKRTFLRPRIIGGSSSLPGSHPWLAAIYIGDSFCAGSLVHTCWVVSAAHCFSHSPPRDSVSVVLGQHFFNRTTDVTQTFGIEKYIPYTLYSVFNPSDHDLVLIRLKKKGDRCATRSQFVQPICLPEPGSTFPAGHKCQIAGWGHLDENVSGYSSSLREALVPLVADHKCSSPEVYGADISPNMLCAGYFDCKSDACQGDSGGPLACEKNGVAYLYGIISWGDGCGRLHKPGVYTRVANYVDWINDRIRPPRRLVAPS
Outline: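 Recombinant His-tagged HGFA residues 373-655 from insect cells, with substrate at Km. Inhibitors in 11-point dilutions, 0-20 μM final, 2% DMSO, fluorescence (ex 380/em 460 nm) followed over time at room temperature. IC50 from four-parameter fit of mean velocity, average of three experiments.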

thrombin = thrombin (Homo sapiens, UniProt P00734); assay: Chromogenic kinetic enzyme assay of thrombin; type: biochemical
Procedure: as §1

MDA-MB-231 cells = assay: MRC5-mediated migration and invasion of MDA-MB-231 cells through Matrigel; type: cell-based, human; conditions: 1 μM, 24 hour
Procedure: MRC5 fibroblasts were plated in the bottom well of a Boyden chamber, and incubated overnight to condition the attractant media. The following day, MDA-MB-231 or T47D cells+/−inhibitors were plated above on Matrigel coated inserts (8.0 μm membrane inserts, 12-well; Corning 3422) and incubated in FBS media overnight. Inhibitors were added to fresh media and then cells were plated above on the inserts. The cells were fixed and stained at the 24 hour time point. The inserts were then removed and mounted on glass plates where the number of migrated cells were imaged and counted at 4 fields per membrane using a light microscope at 20×.

HGFA [2] = target: T2, HGFA (Homo sapiens, UniProt Q04756); assay: Kinetic parameters of ACC substrates (Table 11.4); type: biochemical
T2 sequence (Q04756 408-655 limits assumed): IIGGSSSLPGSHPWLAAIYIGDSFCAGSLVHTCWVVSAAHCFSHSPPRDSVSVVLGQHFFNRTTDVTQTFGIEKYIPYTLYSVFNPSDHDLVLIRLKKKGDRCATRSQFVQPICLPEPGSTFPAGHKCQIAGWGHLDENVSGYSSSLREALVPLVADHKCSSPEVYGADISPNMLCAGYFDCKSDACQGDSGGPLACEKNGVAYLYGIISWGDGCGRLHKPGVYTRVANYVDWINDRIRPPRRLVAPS
T2 sequence (Q04756 373-407 partner limits assumed): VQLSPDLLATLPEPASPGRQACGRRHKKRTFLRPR
Text: Results for MSP-MS profiling for HGFA substrate cleavage and specificity can be seen in FIG. 20 and Tables 11.1-11.4. IceLogo graphs can be seen in FIGS. 21A and 21B.

matriptase [3] = target: T3, matriptase (Homo sapiens, UniProt Q9Y5Y6); assay: Km determination of fluorogenic substrate with matriptase; type: biochemical
T3 construct: Charles Craik, UCSF (obtained from another laboratory)
T3 sequence (Q9Y5Y6 615-855 limits assumed): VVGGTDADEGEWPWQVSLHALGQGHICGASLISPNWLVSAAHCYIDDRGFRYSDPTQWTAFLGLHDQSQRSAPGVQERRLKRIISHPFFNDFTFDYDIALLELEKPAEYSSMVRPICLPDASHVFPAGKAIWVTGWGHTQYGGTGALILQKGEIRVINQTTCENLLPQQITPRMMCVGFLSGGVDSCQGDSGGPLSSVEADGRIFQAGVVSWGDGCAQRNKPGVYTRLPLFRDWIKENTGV
Procedure: (§2) In black 384 well plates (Corning #3575), 12.5 nM HGFA was mixed with various amounts of Boc-QLR-AMC and 1 nM matriptase and 0.3 nM hepsin were mixed with various amounts of Boc-QAR-AMC. Changes in fluorescence (excitation at 380 nm and emission at 460 nn) were measured at room temperature over time in a Biotek Synergy 2 plate reader (Winnoski, Vt.). Using plots of the mean reaction velocity versus substrate concentration and the Michaelis-Menten enzyme kinetics equation within GraphPad Prism version 6.04 for Windows (GraphPad Software, San Diego, Calif., www.graphpad.com), the reaction Vmax and subsequent Km for each of the substrates were determined.

matriptase [4] = target: T3, matriptase; assay: Fluorescent kinetic enzyme inhibitor assay of matriptase; type: biochemical; conditions: Fluorogenic Assay
Outline: (§3)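 Fluorescence (ex 380/em 460 nm) followed kinetically at room temperature; IC50 from four-parameter fit of mean velocity versus concentration, averaged over three experiments.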

HGFA [5] = target: T1, HGFA; assay: Km determination of fluorogenic substrate with HGFA; type: biochemical
Procedure: as §2

hepsin = target: T4, hepsin (Homo sapiens, UniProt P05981); assay: Fluorescent kinetic enzyme inhibitor assay of hepsin; type: biochemical; conditions: Table 9.1; Fluorogenic Assay; read-out: Hepsin Ki
T4 construct: purchased R&D Systems 4776-SE-010
Outline: as §3

[6] = Table 6.2, headed Fluorogenic Assay
[7] = Table 6.2, headed Fluorogenic Assay, read-out: Factor Xa Ki
[8] = Table 6.2, headed Fluorogenic Assay, read-out: Thrombin Ki

Sequence of Factor Xa (P00742 235-488 limits assumed): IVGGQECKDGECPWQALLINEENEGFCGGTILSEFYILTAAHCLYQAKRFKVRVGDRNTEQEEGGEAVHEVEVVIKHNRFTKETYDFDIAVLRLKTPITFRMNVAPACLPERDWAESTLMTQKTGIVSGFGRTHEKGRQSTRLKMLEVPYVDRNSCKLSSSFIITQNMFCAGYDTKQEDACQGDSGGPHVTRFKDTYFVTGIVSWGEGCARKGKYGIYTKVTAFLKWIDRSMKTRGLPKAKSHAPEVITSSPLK
Sequence of Factor Xa (P00742 41-179 partner limits assumed): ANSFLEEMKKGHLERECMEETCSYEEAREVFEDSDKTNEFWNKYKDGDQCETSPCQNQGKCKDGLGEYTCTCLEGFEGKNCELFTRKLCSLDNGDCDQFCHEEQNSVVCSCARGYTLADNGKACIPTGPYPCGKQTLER
T4 sequence (P05981 163-417 limits assumed): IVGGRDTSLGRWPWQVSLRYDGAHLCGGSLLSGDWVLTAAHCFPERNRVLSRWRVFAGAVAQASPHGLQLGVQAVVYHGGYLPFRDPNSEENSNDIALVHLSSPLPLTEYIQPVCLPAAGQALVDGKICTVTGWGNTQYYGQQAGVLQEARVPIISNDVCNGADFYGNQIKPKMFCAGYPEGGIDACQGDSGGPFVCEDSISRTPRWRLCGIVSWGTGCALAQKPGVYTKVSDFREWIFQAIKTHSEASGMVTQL
T4 sequence (P05981 45-162 partner limits assumed): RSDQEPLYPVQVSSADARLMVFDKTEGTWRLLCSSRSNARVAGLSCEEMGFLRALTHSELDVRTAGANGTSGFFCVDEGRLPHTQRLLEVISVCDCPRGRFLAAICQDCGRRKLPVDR

Row | Compound | Ki (Trypsin; [6]) [nM] | Ki (HGFA [1]; Table 6.1) [nM] | Ki (Factor Xa; [7]) [nM] | Ki (thrombin; [8]) [nM] | further results
1 | CC(=O)N[C@@H](CO)C(=O)N[C@@H](CCCCN)C(=O)N[C@@H](CC(C)C)C(=O)N[C@@H](CCCNC(=N)N)C(=O)c1nc2ccccc2s1 [Compound 7053, Ac-SKLR(SEQ ID NO: 10)-Kbt] | 0.16 | 33 | – | – | Ki (Factor Xa): 1900 nM; Ki (thrombin): > 20000 nM
2 | CC(=O)N[C@@H](CCCCN)C(=O)N[C@@H](CCCNC(=N)N)C(=O)N[C@@H](CC(C)C)C(=O)N[C@@H](CCCNC(=N)N)C(=O)c1nc2ccccc2s1 [Compound 7054, Ac-KRLR(SEQ ID NO: 8)-Kbt] | 0.82 | 6 | 91.9 | > 20000 | MRC5-mediated migration and invasion (MDA-MB-231 cells): abrogate
3 | CC(=O)N[C@@H](CCCCN)C(=O)N[C@@H](CCC(N)=O)C(=O)N[C@@H](CC(C)C)C(=O)N[C@@H](CCCNC(=N)N)C(=O)c1nc2ccccc2s1 [Compound 7006, Ac-KQLR(SEQ ID NO: 1)-Kbt] | 0.24 | 30 | – | – | Ki (Factor Xa): 129 nM; fold increase in HGFA potency (HGFA [1]; versus parent compound): 2 fold; Ki (thrombin): > 20000 nM
4 | Ac-His(3Bom)-Agp-hLeu-Arg-ACC | – | – | – | – | Km (HGFA [2]): 52.1 µM
5 | COC(=O)c1cccc(CNC(=O)c2ccc3nc(C(=O)[C@H](CCCNC(=N)N)NC(=O)[C@H](CC(C)C)NC(=O)[C@H](CCCNC(=N)N)NC(=O)[C@H](CCCCN)NC(C)=O)sc3c2)c1 [Compound 7159, Ac-KRLR(SEQ ID NO: 8)-kbt-Benzyl-3-COOMe] | 0.04 | 7.76 | 14 | 85.4 | –
6 | Cc1cc(=O)oc2cc(NC(=O)[C@H](CCCNC(=N)N)NC(=O)[C@H](C)NC(=O)[C@H](CCC(N)=O)NC(=O)OC(C)(C)C)ccc12 [Boc-QAR-AMC] (Boc-Gln-Ala-Arg-{AMC}) | – | – | – | – | Km (matriptase [3]): 93 µM
7 | CC(=O)N[C@@H](Cc1ccccc1)C(=O)N[C@@H](CC(C)C)C(=O)N[C@@H](Cc1ccccc1)C(=O)N[C@@H](CCCNC(=N)N)C(=O)c1nc2ccccc2s1 [Compound 7063, Ac-FLFR(SEQ ID NO: 19)-Kbt] | 0.27 | 114 | 13.1 | > 20000 | Ki (matriptase [4]; Table 6.1): 3.6 nM
8 | Cc1cc(=O)oc2cc(NC(=O)[C@H](CCCNC(=N)N)NC(=O)[C@H](CC(C)C)NC(=O)[C@H](CCC(N)=O)NC(=O)OC(C)(C)C)ccc12 [Boc-QLR-AMC] (Boc-Gln-Leu-Arg-{AMC}) | – | – | – | – | Km (HGFA [5]): 37 µM
9 | COC(=O)c1ccc(CNC(=O)c2ccc3nc(C(=O)[C@H](CCCNC(=N)N)NC(=O)[C@H](CC(C)C)NC(=O)[C@H](CCCNC(=N)N)NC(=O)[C@H](CCCCN)NC(C)=O)sc3c2)cc1 [Compound 7158, Ac-KRLR(SEQ ID NO: 8)-kbt-Benzyl-4-COOMe] | 0.05 | 5.85 | 9 | 20.9 | –
10 | N=C(N)c1cccc(C[C@H](NS(=O)(=O)c2ccc3ccccc3c2)C(=O)N2CCN(C(=O)NCc3ccc(Br)cc3)CC2)c1 [Compound 25a, (S)—N-(4-Bromobenzyl)-4-(3-(3-carbamimidoylphenyl)-2-(naphthalene-2-sulfonamido)propanoyl)piperazine-1-carboxamide] | – | – | – | – | Ki (Factor Xa; Table 9.4, read-out: Factor Xa Ki): 4560 nM; Ki (matriptase [4]; Table 9.1): 4200 nM; Ki (Trypsin; Table 9.4): 2.2 nM; Ki (HGFA [1]; Table 9.1): 16200 nM; Ki (thrombin; Table 9.4, read-out: Thrombin Ki): 3110 nM; Ki (hepsin): 48 nM
11 | N=C(N)NCCC[C@H](NC(=O)[C@H](Cc1ccccc1)NC(=O)OCC1c2ccccc2-c2ccccc21)C(=O)c1nc2ccccc2s1 [Compound 7187-14, Fmoc-FR-kbt] | 14.3 | 964 | 28.4 | > 2000 | –
12 | CC(C)C[C@H](NC(=O)[C@H](CCCNC(=N)N)NC(=O)[C@@H](N)Cc1c[nH]c2ccccc12)C(=O)N[C@@H](CCCNC(=N)N)C(=O)c1nc2ccccc2s1 [Compound 7117, H-WRLR(SEQ ID NO: 9)-Kbt] | 0.96 | 8.75 | 2.4 | 4890 | –
